# Values joined by “and” are separate entries in the source; they are usually repeats but may differ in a detail not shown here. Equal entries are not always repeated.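 Assay format: 96-well plates, 48-hour exposure. GI50: concentration for 50% inhibition of growth. At the TGI there is no net growth.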
# Experiments:
# Test in all cases: growth of human tumour cells (NCI), 48 h
# HOP-92 NSCLC = test system: HOP-92 NSCLC
# U251 CNS = test system: U251 CNS
# SW-620 colon = test system: SW-620 colon
# IGROV1 ovarian = test system: IGROV1 ovarian
# HL-60(TB) leukemia = test system: HL-60(TB) leukemia
# MCF7 breast = test system: MCF7 breast
# MALME-3M melanoma = test system: MALME-3M melanoma
# SR leukemia = test system: SR leukemia
# OVCAR-4 ovarian = test system: OVCAR-4 ovarian
# 786-0 renal = test system: 786-0 renal
# NCI/ADR-RES ovarian = test system: NCI/ADR-RES ovarian
# HOP-62 NSCLC = test system: HOP-62 NSCLC
# PC-3 prostate = test system: PC-3 prostate
# HS 578T breast = test system: HS 578T breast
# MOLT-4 leukemia = test system: MOLT-4 leukemia
# SK-MEL-5 melanoma = test system: SK-MEL-5 melanoma
# DU-145 prostate = test system: DU-145 prostate
# M14 melanoma = test system: M14 melanoma
# RXF 393 renal = test system: RXF 393 renal
# OVCAR-3 ovarian = test system: OVCAR-3 ovarian
# A498 renal = test system: A498 renal
# NCI-H460 lung = test system: NCI-H460 lung
# NCI-H522 lung = test system: NCI-H522 lung
# LOX IMVI melanoma = test system: LOX IMVI melanoma
# EKVX NSCLC = test system: EKVX NSCLC
# HCC-2998 colon = test system: HCC-2998 colon
# BT-549 breast = test system: BT-549 breast
# SK-OV-3 ovarian = test system: SK-OV-3 ovarian
# OVCAR-5 ovarian = test system: OVCAR-5 ovarian
# A549 NSCLC = test system: A549 NSCLC
# COLO 205 colon = test system: COLO 205 colon
# KM12 colon = test system: KM12 colon
# SF-268 CNS = test system: SF-268 CNS
# SK-MEL-28 melanoma = test system: SK-MEL-28 melanoma
# SNB-19 CNS = test system: SNB-19 CNS
# SK-MEL-2 melanoma = test system: SK-MEL-2 melanoma
# UACC-62 melanoma = test system: UACC-62 melanoma
# HCT-116 colon = test system: HCT-116 colon
# SF-539 CNS = test system: SF-539 CNS
# HT29 colon = test system: HT29 colon
# SNB-75 CNS = test system: SNB-75 CNS
# CAKI-1 renal = test system: CAKI-1 renal
# UACC-257 melanoma = test system: UACC-257 melanoma
# HCT-15 colon = test system: HCT-15 colon
# MDA-MB-231 breast = test system: MDA-MB-231 breast
# RPMI-8226 leukemia = test system: RPMI-8226 leukemia
# OVCAR-8 ovarian = test system: OVCAR-8 ovarian
# TK-10 renal = test system: TK-10 renal
# NCI-H226 lung = test system: NCI-H226 lung
# T-47D breast = test system: T-47D breast
# CCRF-CEM leukemia = test system: CCRF-CEM leukemia
# MDA-MB-435 = test system: MDA-MB-435
# UO-31 renal = test system: UO-31 renal
# ACHN renal = test system: ACHN renal
# SF-295 CNS = test system: SF-295 CNS
# NCI-H23 lung = test system: NCI-H23 lung
# SN12C renal = test system: SN12C renal
# K-562 leukemia = test system: K-562 leukemia
# MDA-N = test system: MDA-N
smiles,measurement,setting,value
Cc1cc(C(=O)NOCCO)c(Nc2ccc(I)cc2F)n(C)c1=O,GI50,HOP-92 NSCLC,5.85 nM and 23.5 nM
same,TGI,HOP-92 NSCLC,200 nM and 1040 nM
same,GI50,U251 CNS,> 10000 nM and 2810 nM
same,TGI,U251 CNS,> 100 µM
same,GI50,SW-620 colon,2.52 nM and < 10 nM
same,TGI,SW-620 colon,> 100 µM
same,GI50,IGROV1 ovarian,9.09 nM and 17.8 nM
same,TGI,IGROV1 ovarian,> 100 µM
same,GI50,HL-60(TB) leukemia,1.73 nM and < 10 nM
same,TGI,HL-60(TB) leukemia,> 49.6 µM
same,GI50,MCF7 breast,> 100 µM
same,TGI,MCF7 breast,> 100 µM
same,GI50,MALME-3M melanoma,< 10 nM
same,TGI,MALME-3M melanoma,11.5 nM and < 10 nM
same,GI50,SR leukemia,> 10 µM and 29.5 µM
same,TGI,SR leukemia,> 100 µM
same,TGI,OVCAR-4 ovarian,> 100 µM
same,GI50,786-0 renal,> 83.9 µM
same,TGI,786-0 renal,> 100 µM
same,GI50,NCI/ADR-RES ovarian,> 90.6 µM
same,TGI,NCI/ADR-RES ovarian,> 100 µM
same,TGI,HOP-62 NSCLC,> 100 µM
same,GI50,PC-3 prostate,> 100 µM
same,TGI,PC-3 prostate,> 100 µM
same,GI50,HS 578T breast,> 10 µM and 37.2 µM
same,TGI,HS 578T breast,> 100 µM
same,GI50,MOLT-4 leukemia,> 100 µM
same,TGI,MOLT-4 leukemia,> 100 µM
same,GI50,SK-MEL-5 melanoma,< 10 nM
same,TGI,SK-MEL-5 melanoma,> 100 µM
same,GI50,DU-145 prostate,> 10 µM and 53.8 µM
same,TGI,DU-145 prostate,> 100 µM
same,GI50,M14 melanoma,1.59 nM and < 10 nM
same,TGI,M14 melanoma,2890 nM
same,GI50,RXF 393 renal,91.5 nM and 199 nM
same,TGI,RXF 393 renal,> 10 µM and 92.3 µM
same,GI50,OVCAR-3 ovarian,> 100 µM
same,TGI,OVCAR-3 ovarian,> 100 µM
same,GI50,A498 renal,3.23 nM and 10.3 nM
same,TGI,A498 renal,28.6 nM and 43.5 nM
same,GI50,NCI-H460 lung,> 10 µM and 46.7 µM
same,TGI,NCI-H460 lung,> 100 µM
same,GI50,NCI-H522 lung,> 10 µM and 13.7 µM
same,TGI,NCI-H522 lung,> 100 µM
same,TGI,LOX IMVI melanoma,> 100 µM
same,GI50,EKVX NSCLC,23.3 nM
same,TGI,EKVX NSCLC,> 10 µM
same,GI50,HCC-2998 colon,2.97 nM and < 10 nM
same,TGI,HCC-2998 colon,> 6.94 µM
same,GI50,BT-549 breast,> 100 µM
same,TGI,BT-549 breast,> 100 µM
same,GI50,SK-OV-3 ovarian,> 10 µM and 51.6 µM
same,TGI,SK-OV-3 ovarian,> 100 µM
same,GI50,OVCAR-5 ovarian,1.63 nM and < 16.8 nM
same,TGI,OVCAR-5 ovarian,> 100 µM
same,TGI,A549 NSCLC,> 100 µM
same,GI50,COLO 205 colon,< 10 nM
same,TGI,COLO 205 colon,> 100 µM
same,GI50,KM12 colon,26.3 nM and < 16.1 nM
same,TGI,KM12 colon,> 100 µM
same,GI50,SF-268 CNS,> 100 µM
same,TGI,SF-268 CNS,> 100 µM
same,GI50,SK-MEL-28 melanoma,2.27 nM and < 10 nM
same,GI50,SNB-19 CNS,6.08 µM
same,TGI,SNB-19 CNS,> 100 µM
same,GI50,SK-MEL-2 melanoma,2.99 nM and < 10 nM
same,GI50,UACC-62 melanoma,1.5 nM and < 10 nM
same,TGI,UACC-62 melanoma,11.6 nM and 22.1 nM
same,GI50,HCT-116 colon,11 nM and 16.4 nM
same,TGI,HCT-116 colon,> 100 µM
same,GI50,SF-539 CNS,> 38.5 µM
same,TGI,SF-539 CNS,> 100 µM
same,GI50,HT29 colon,1.93 nM and < 10 nM
same,TGI,HT29 colon,> 100 µM
same,GI50,SNB-75 CNS,> 10 µM and 17.1 µM
same,TGI,SNB-75 CNS,> 100 µM
same,GI50,CAKI-1 renal,185 nM
same,TGI,CAKI-1 renal,> 100 µM
same,GI50,UACC-257 melanoma,1.86 nM and < 10 nM
same,TGI,UACC-257 melanoma,12.8 nM and < 19.7 nM
same,GI50,HCT-15 colon,> 3010 nM and 2640 nM
same,TGI,HCT-15 colon,> 100 µM
same,GI50,MDA-MB-231 breast,7.5 nM and < 10 nM
same,TGI,MDA-MB-231 breast,> 100 µM
same,GI50,RPMI-8226 leukemia,> 10 µM and 37.9 µM
same,TGI,RPMI-8226 leukemia,> 100 µM
same,GI50,OVCAR-8 ovarian,> 36.5 µM
same,TGI,OVCAR-8 ovarian,> 100 µM
same,TGI,TK-10 renal,> 100 µM
same,GI50,NCI-H226 lung,> 10 µM and 5.83 µM
same,TGI,NCI-H226 lung,> 100 µM
same,GI50,T-47D breast,> 10 µM and 78.9 µM
same,TGI,T-47D breast,> 100 µM
same,GI50,CCRF-CEM leukemia,> 100 µM
same,TGI,CCRF-CEM leukemia,> 100 µM
same,GI50,MDA-MB-435,4.58 nM and < 10 nM
same,TGI,MDA-MB-435,> 100 µM
same,GI50,UO-31 renal,28.9 nM and < 45 nM
same,TGI,UO-31 renal,> 100 µM
same,TGI,ACHN renal,> 100 µM
same,GI50,SF-295 CNS,> 100 µM
same,TGI,SF-295 CNS,> 100 µM
same,GI50,NCI-H23 lung,23.7 nM and 13.1 nM
same,TGI,NCI-H23 lung,> 100 µM
same,GI50,SN12C renal,12.3 µM
same,TGI,SN12C renal,> 100 µM
same,GI50,K-562 leukemia,321 nM and 190 nM
same,TGI,K-562 leukemia,> 100 µM
OC[C@@H](O)[C@H](O)[C@H](O)[C@@H](O)C1SCCCS1,TGI,HOP-92 NSCLC,92500 nM
same,TGI,U251 CNS,> 100 µM
same,TGI,SW-620 colon,> 100 µM
same,TGI,IGROV1 ovarian,> 100 µM
same,TGI,MCF7 breast,> 100 µM
same,TGI,SR leukemia,> 100 µM
same,TGI,OVCAR-4 ovarian,> 100 µM
same,TGI,786-0 renal,> 100 µM
same,TGI,NCI/ADR-RES ovarian,> 100 µM
same,TGI,HOP-62 NSCLC,> 100 µM
same,TGI,PC-3 prostate,> 100 µM
same,TGI,MOLT-4 leukemia,> 100 µM
same,TGI,SK-MEL-5 melanoma,> 100 µM
same,TGI,DU-145 prostate,> 100 µM
same,TGI,M14 melanoma,> 100000 nM
same,TGI,RXF 393 renal,> 100 µM
same,TGI,OVCAR-3 ovarian,> 100 µM
same,TGI,A498 renal,> 100000 nM
same,TGI,NCI-H460 lung,> 100 µM
same,TGI,EKVX NSCLC,> 100 µM
same,TGI,HCC-2998 colon,> 100 µM
same,TGI,BT-549 breast,> 100 µM
same,TGI,SK-OV-3 ovarian,> 100 µM
same,TGI,OVCAR-5 ovarian,> 100 µM
same,TGI,MDA-N,> 100 µM
same,TGI,A549 NSCLC,> 100 µM
same,TGI,COLO 205 colon,> 100 µM
same,TGI,KM12 colon,> 100 µM
same,TGI,SF-268 CNS,> 100 µM
same,TGI,SK-MEL-28 melanoma,> 100 µM
same,TGI,SNB-19 CNS,> 100 µM
same,TGI,SK-MEL-2 melanoma,> 100 µM
same,TGI,UACC-62 melanoma,> 100000 nM
same,TGI,HCT-116 colon,> 100 µM
same,TGI,SF-539 CNS,> 100 µM
same,TGI,HT29 colon,> 100 µM
same,TGI,SNB-75 CNS,> 100 µM
same,TGI,CAKI-1 renal,> 100 µM
same,TGI,UACC-257 melanoma,> 100000 nM
same,TGI,HCT-15 colon,> 100 µM
same,TGI,MDA-MB-231 breast,> 100 µM
same,TGI,RPMI-8226 leukemia,> 100 µM
same,TGI,OVCAR-8 ovarian,> 100 µM
same,TGI,TK-10 renal,> 100 µM
same,TGI,NCI-H226 lung,> 100 µM
same,TGI,T-47D breast,> 100 µM
same,TGI,MDA-MB-435,> 100 µM
same,TGI,UO-31 renal,> 100 µM
same,TGI,ACHN renal,> 100 µM
same,TGI,SF-295 CNS,> 100 µM
same,TGI,NCI-H23 lung,> 100 µM
same,TGI,SN12C renal,> 100 µM

# Source: PubChem BioAssay (NCI)
